Data taken from patent publication US20040127403A1, “Methods for treating and preventing Gram-positive bacteremias” (priority 2002, published 2004).

Legend:
[1] = Oral bioavailability and pharmacokinetics in the rat; format: in vivo
Procedure: The oral availability of ramoplanin was assessed by comparing a 1000 mg/kg oral dose with a 5 mg/kg intravenous dose in the rat. […] The mean absorption time was 3.4 hours. […] Terminal elimination half-lives were 3.5 and 5.9 hours for the intravenous and oral doses, respectively. […] In intravenously treated rats, the amount excreted in urine represented less than 0.01% of the administered dose.

[2] = Bioavailability and serum pharmacokinetics in Beagle dogs; format: in vivo
Procedure: The bioavailability of a 300 mg/kg ramoplanin oral gelatin capsule and the serum pharmacokinetics of a 5 mg/kg intravenous dose were examined in four male Beagle dogs.

[3] = Single dose study in healthy male volunteers: absorption and fecal recovery; format: in vivo, human
Procedure: The absorption, tolerability, and recovery of ramoplanin following single dose oral administration were investigated in male volunteers. Ramoplanin was administered as an aqueous solution at a dose of 100, 200, 500, or 1000 mg to fasting subjects. Serum samples were obtained prior to drug administration of ramoplanin and 0.5, 1, 2, 3, 6, 9, 12, 24, 48, 72, and 96 hours after treatment. Urine samples were collected prior to administration of ramoplanin and over the periods 0-3, 3-6, 6-12, 12-24, 24-48, 48-72, and 72-96 hours after dosing. Fecal samples were collected prior to dosing and over the periods 0-16 (Day 1), 16-40 (Day 2), 40-64 (Day 3), 64-88 (Day 4), and 88-96 (Day 5) hours after dosing. A microbiological assay employing Bacillis subtilis ATCC 6633 as the test organism was used to determine ramoplanin concentrations in serum, urine, and feces. The limits of quantitation for this assay were 0.02 μg/mL in serum, 0.012 μg/mL in urine, and 3 μg/g in feces. Tolerability was assessed on the basis of clinical signs and symptoms and the results of blood and urine laboratory tests.

[4] = test system: Gram-positive bacteria (staphylococci, streptococci, enterococci) in feces; assay: Multiple dose study: activity on stool microflora, Gram-positive bacteria; format: in vivo, human
Procedure: (§1) Healthy male volunteers were administered 200, 400, or 800 mg ramoplanin twice-a-day, for ten consecutive days. The predetermined dose was reconstituted in 5 mL water per vial, mixed with 50 mL of sweetened, aromatized solution, and immediately administered orally to the subjects.
(§2) The antibacterial activity of ramoplanin on the stool microflora was assessed in a subset of the subjects. Microbial concentrations (i.e., the number of organisms per gram of fecal matter) were determined at the following time points: Day-4 (pre-treatment), Days 4 and 10 (treatment), and Days […] and 24 (follow-up). Tolerability and absorption were also investigated.

Clostridium spp. = assay: Multiple dose study: activity on stool microflora, Clostridium; format: in vivo, human
Procedure: as §1, §2

[5] = test system: Gram-negative bacteria (enteric bacteria and Bacteroides spp.) or yeast; assay: Multiple dose study: activity on stool microflora, Gram-negative bacteria and yeast; format: in vivo, human; conditions: healthy male volunteers, oral 200, 400, 800 mg B.I.D. 10 days
Procedure: as §1, §2

fecal Enterococci = assay: Oral formulation study: suppression of fecal Enterococci; format: in vivo, human; conditions: 400 mg b.i.d. seven days, granulated powder in Orasweet syrup; day 7/8
Procedure: (§3) To further elucidate the pharmacodynamics and intestinal bioavailability, healthy male volunteers (18-45 years; BMI—19-29 kg/m^2) were administered oral ramoplanin (400 mg b.i.d.) for seven days and fecal Enterococci were monitored. Ramoplanin was administered to six subjects as a granulated powder admixed with Orasweet® syrup vehicle.
The presence of fecal enterococci was confirmed in all subjects prior to study initiation. Fecal samples were cultured on day 7/8. The pharmacodynamic endpoints was the number of subjects with successful suppression of fecal Enterococci on day 7/8 compared to the pre-study culture.

[6] = Oral formulation study: ramoplanin in feces, plasma and urine; format: in vivo, human; conditions: 400 mg b.i.d. seven days
Procedure: as §3

Ramoplanin
amount excreted in urine ([1]; intravenously treated rats): less than 0.01 % of the administered dose | distribution ([1]; rat): not widely distributed outside the central compartment | volume of distribution at steady state ([1]; rat): 0.75 L/kg | volume of the central compartment ([1]; rat): 0.42 L/kg | time of maximum observed serum concentration ([1]; rat, 5 mg/kg intravenous): 0.083 h | Maximum observed serum concentration ([1]; rat, 1000 mg/kg oral): 2.8 µg/mL | mean absorption time ([1]; rat, 1000 mg/kg oral): 3.4 h | time of maximum observed serum concentration ([1]; rat, 1000 mg/kg oral): 0.5 h | absolute bioavailability (F) ([1]; rat, 1000 mg/kg oral relative to 5 mg/kg intravenous): 0.18% | Terminal elimination half-life ([1]; rat, intravenous dose): 3.5 h | Terminal elimination half-life ([1]; rat, oral dose): 5.9 h | distribution to tissues [2]: not distributed widely to tissues | mean absorption time ([2]; 300 mg/kg oral gelatin capsule): 8.19 ± 3.12 h | absolute bioavailability ([2]; 300 mg/kg oral gelatin capsule vs 5 mg/kg intravenous): less than 1% | subjects with ramoplanin still detectable in feces ([3]; fourth day of study, single oral dose): 17 of 24 | ramoplanin in serum/plasma or urine ([3]; healthy male volunteers, single oral doses up to 1000 mg and multiple oral doses 200, 400, 800 mg B.I.D. 10 days, bioassay and HPLC): not detected | Mean cumulative recovery of ramoplanin in feces ([3]; single oral dose 100 mg): 67.7 % of the administered dose | Mean maximum concentration in feces ([3]; single oral dose 100 mg): 214 µg/g | cumulative recovery of ramoplanin in feces, range ([3]; single oral dose 100 mg): 55.7-84 % of the administered dose | maximum concentration in feces, range ([3]; single oral dose 100 mg): 148 to 278 µg/g | Mean cumulative recovery of ramoplanin in feces ([3]; single oral dose 200 mg): 48.5 % of the administered dose | Mean maximum concentration in feces ([3]; single oral dose 200 mg): 287 µg/g | cumulative recovery of ramoplanin in feces, range ([3]; single oral dose 200 mg): 39.3-56.5 % of the administered dose | maximum concentration in feces, range ([3]; single oral dose 200 mg): 164 to 454 µg/g | Mean cumulative recovery of ramoplanin in feces ([3]; single oral dose 500 mg): 52.8 % of the administered dose | Mean maximum concentration in feces ([3]; single oral dose 500 mg): 1655 µg/g | cumulative recovery of ramoplanin in feces, range ([3]; single oral dose 500 mg): 41.3-79.6 % of the administered dose | maximum concentration in feces, range ([3]; single oral dose 500 mg): 737 to 3316 µg/g | Mean cumulative recovery of ramoplanin in feces ([3]; single oral dose 1000 mg): 46.4 % of the administered dose | Mean maximum concentration in feces ([3]; single oral dose 1000 mg): 1835 µg/g | cumulative recovery of ramoplanin in feces, range ([3]; single oral dose 1000 mg): 39.9-58.4 % of the administered dose | maximum concentration in feces, range ([3]; single oral dose 1000 mg): 1336 to 3154 µg/g | time of maximum ramoplanin concentration and maximum percentage recovery in feces ([3]; single oral dose 100-1000 mg): the day after administration (Day 2) | concentrations of staphylococci, streptococci, and enterococci in stool ([4]; by Day 10, all subjects): below the level of detection | effect on Gram-positive bacteria in stool ([4]; first measurement on Day 4 of treatment): marked effect | intestinal flora after therapy ([4]; follow-up after the 10-day therapy): re-colonized by normal Gram-positive bacteria | Gram-positive colony counts in feces ([4]; healthy male volunteers, all doses (200, 400, 800 mg B.I.D.), during the 10-day regimen): undetectable levels | subjects with Clostridium spp. concentration reduced below detectable levels (Clostridium spp.; multiple dose study, stool microflora subset): 10 of 12 | clostridial load (Clostridium spp.; two subjects carrying ramoplanin- and vancomycin-resistant Clostridium spp. (C. rectum and C. beijerinckii) before treatment): no variation | effect on Gram-negative flora / yeast in stool [5]: not effective | effect on Gram-negative flora / yeast in stool ([5]; listed as ramoplanin): no effect | growth of fecal enterococci (fecal Enterococci): suppressed in all test subjects | fecal ramoplanin concentration [6]: 0.56 to 2.65 mg/g | ramoplanin concentration in plasma or urine ([6]; any subject): No measurable ramoplanin concentration was detected
